The term EC50 denotes the concentration at which the effect is half-maximal. A word on the CC50: it is the concentration at which the toxic effect on the cells reaches its halfway point.

We go through 1 molecule from ChEMBL document CHEMBL4665893, “Scalable Synthesis, In Vitro cccDNA Reduction, and In Vivo Antihepatitis B Virus Activity of a Phosphonomethoxydeoxythreosyl Adenine Prodrug” (J Med Chem, 2020).

In data set [1] the test system is Hepatitis B virus. The experiment in a line: Antiviral activity against adenovirus AdH294-WT harboring wild-type HBV genotype D accession #V01460 infected in human HepG2 cells assessed as reduction in viral replicative intermediate DNAs incubated for 5 days by Southern blot analysis. The note with it: genotype D accession #V01460, HepG2, 120 h. Type of data set: functional, organism-based.

Data set [2] concerns Hepatitis B virus. In words: Antiviral activity against ETV-resistant and adenovirus AdH294-7LR harboring wild-type HBV infected in human HepG2 cells assessed as viral replicative intermediate DNA level at 1100 nM incubated for 5 days by Southern blot analysis (reference value: 100%). It is filed as functional. To be noted: time 5 day.
Data set [3] relates to Hepatitis B virus. The experiment in a line: Antiviral activity against ETV-resistant and adenovirus AdH294-7LR harboring wild-type HBV infected in human HepG2 cells assessed as viral replicative intermediate DNA level at 3300 nM incubated for 5 days by Southern blot analysis (reference value: 100%). The note with it: time 5 day. It is filed as functional.
The test system of data set [4] is Hepatitis B virus. In words: Antiviral activity against adenovirus AdH294-WT harboring wild-type HBV genotype D accession #V01460 infected in human HepG2 cells assessed as reduction in viral replicative intermediate DNA level at 4 nM incubated for 5 days by Southern blot analysis (reference value: 100%). Type of data set: functional. Also on record: scale not given: the % may be the effect or the level left. To be noted: time 5 day.

The subject of data set [5] is Hepatitis B virus. The experiment in a line: Antiviral activity against adenovirus AdH294-WT harboring wild-type HBV genotype D accession #V01460 infected in human HepG2 cells assessed as reduction in viral replicative intermediate DNA level at 40 nM incubated for 5 days by Southern blot analysis (reference value: 100%). It is filed as functional. Details: scale not given: the % may be the effect or the level left. To be noted: time 5 day.

The subject of data set [6] is Hepatitis B virus. In words: Antiviral activity against adenovirus AdH294-WT harboring wild-type HBV genotype D accession #V01460 infected in human HepG2 cells assessed as reduction in viral replicative intermediate DNA level at 120 nM incubated for 5 days by Southern blot analysis (reference value: 100%). Details: scale not given: the % may be the effect or the level left. The note with it: time 5 day. Type of data set: functional.

Data set [7] can be described thus: Toxicity in human HepDE19 cells assessed as reduction in beta-actin level incubated for 9 days by qPCR analysis. Type of data set: cell-based. The note with it: time 9 day. Background: In qPCR the cycle at which signal appears reflects the starting amount.
Data set [8] can be described thus: Plasma concentration in C57BL/6 mouse at 6 mg/kg, po administered as single dose after 0.25 to 24 hrs by LC/MS/MS analysis. Type of data set: ADME, organism-based. To be noted: in vivo, time 0.25-24 hrs.
In data set [9] the test system is Hepatitis B virus. The experiment in a line: Antiviral activity against HBV infected hydrodynamic injection C57BL/6 mouse model assessed as reduction in serum HBV DNA level at 0.6 to 60 mg/kg, po QD for 6 days by qPCR analysis. Type of data set: functional, organism-based. The note with it: dose mg/kg 0.6-60, time 6.0 day.
The nature of data set [10]: Toxicity in C57BL/6 male mouse assessed as reduction in food consumption loss at 60 mg/kg, po for 11 days relative to control. It is filed as organism-based. To be noted: in vivo, 264 h, time 11 day.
Data set [11] in a line: Toxicity in C57BL/6 male mouse assessed as reduction in hemoglobin level at 60 mg/kg, po for 14 days by hematology analysis. Type of data set: organism-based. To be noted: in vivo, 336 h, time 14 day.
The nature of data set [12]: Toxicity in C57BL/6 male mouse assessed as reduction in mean corpuscular volume level at 60 mg/kg, po for 14 days by hematology analysis. Type of data set: organism-based. The note with it: in vivo, 336 h, time 14 day.
Data set [13] is described as follows: Toxicity in C57BL/6 male mouse assessed as increase in LDL-C level at 60 mg/kg, po for 14 days. It is filed as organism-based. To be noted: in vivo, 336 h, time 14 day.
Data set [14] is described as follows: Toxicity in C57BL/6 female mouse assessed as effect on organ weight level at 60 mg/kg, po for 14 days. Type of data set: organism-based. To be noted: in vivo, 336 h, time 14 day.
Data set [15] can be described thus: Toxicity in C57BL/6 male mouse assessed as effect on organ weight level at 60 mg/kg, po for 14 days. Type of data set: organism-based. To be noted: in vivo, 336 h, time 14 day.
A short description of data set [16]: Genotoxicity in Salmonella typhimurium TA100 assessed as increase in number of spontaneous revertants colonies by Ames test. It is filed as toxicity. The note with it: salmonella enterica subsp. enterica serovar typhimurium, 1 µM. A general note: The Ames test detects mutagens through reverse mutation in bacteria.
Data set [17] can be described thus: Genotoxicity in Salmonella typhimurium TA1537 assessed as increase in number of spontaneous revertants colonies by Ames test. Type of data set: toxicity. To be noted: salmonella enterica subsp. enterica serovar typhimurium, 1 µM.
Data set [18] is described as follows: Toxicity in C57BL/6 female mouse assessed as reduction in erythrocytes level at 60 mg/kg, po for 14 days by hematology analysis. The note with it: in vivo, 336 h, time 14 day. Type of data set: organism-based.

Active and inactive are the calls of the source. The calls are words filed in the database; no cut-off is given here.

`CC(C)CCOC(=O)C[C@H](NP(=O)(CO[C@H]1CO[C@@H](n2cnc3c(N)ncnc32)C1)Oc1ccccc1)C(=O)OCCC(C)C` (mixture of isomers): the 50% effective concentration (EC50) with Hepatitis B virus [1] was below 4 nM. The Activity in the data set on Hepatitis B virus [2] was 18.1%; in the data set with Hepatitis B virus [3], 11.7%; in the data set on Hepatitis B virus [4], 39.1%; in the data set with Hepatitis B virus [5] it was 12.9%; in the data set with Hepatitis B virus [6], 7.5%; in data set [10] it was “Toxic”. Besides, the Activity entry in data set [11] is recorded as “Toxic”; in data set [12] it was “Toxic”; in data set [13] it was “Toxic”; in data set [14] it was “Non-Toxic”; in data set [15], “Non-Toxic”; in [16] it was “Non-Toxic”. In addition, the Activity result in data set [17] and in data set [18] was “Non-Toxic” in each case. Moreover, the CC50 at 216 h in [7] was determined as 230 nM. In data set [8], this molecule showed a Cp below 1.01 ng/mL. The result in the data set with Hepatitis B virus [9] was Active.
